{"source": "patent US11596615B2", "about": "“Compositions and methods for treatment of insulin resistance” (Temple University—Of The Commonwealth System Of Higher …, priority 2016, dated 2023)", "key": {"[1]": {"assay": "Liver microsome stability, rat", "assay_type": "in vitro ADME, Rat (pooled Sprague Dawley; male)", "settings": "male, Sprague Dawley; rat liver microsomes, 1 μM compound, 0.5 mg/ml microsomal protein, 37° C., 2 mM NADPH", "method": "(§1) The stability of the title compound in the presence of liver microsomes was tested at 1 μM compound and 0.5 mg/ml rat or human microsomal protein, at 37° C. with 2 mM NADPH (standard in vitro screening concentrations). […] The “t1/2” values are the maximum time employed for the respective assays."}, "[2]": {"assay": "Liver microsome stability, human", "assay_type": "in vitro ADME, Human (pooled male and female)", "settings": "both sexes; human liver microsomes, 1 μM compound, 0.5 mg/ml microsomal protein, 37° C., 2 mM NADPH", "method": "as §1"}, "[3]": {"assay": "Solution stability in PBS, simulated gastric fluid and simulated intestinal fluid", "assay_type": "physicochemical", "settings": "37° C.", "method": "The stability of the title compound was tested in the following media, in the following concentrations: (i) 1 μM in mouse (male C57BL/6) plasma, (ii) 1 μM in PBS (with Ca and Mg) (control treatment); (iii) 5 μM in stimulated gastric fluid (SGF; 0.2% NaCl; 84 mM HCl; 0.32% pepsin; pH 1.2); (iv) 5 μM in stimulated intestinal fluid (SIF; 50 mM KP, pH 6.8; 10 mg/ml pancreatin); and (v) 5 μM in PBS (+Ca and Mg) (control treatment). The results are as follows: (i) 1 μM in mouse plasma, t1/2>6 hr at 37° C.; (ii) 1 μM in PBS, t1/2>6 hr at 37° C.; (iii) 5 μM in SGF, t1/2>3 hrs at 37° C.; (iv) 5 μM in SIF, t1/2>3 hrs at 37° C.; and (v) 5 μM in PBS, t1/2>3 hr at 37° C. The “t1/2” values are the maximum time employed for the respective assays."}, "[4]": {"assay": "Predicted concentration-time profile for oral dosing in drinking water", "settings": "10 mg/kg/day in drinking water, modeled as six oral doses over 12 hrs, plasma", "method": "The maximum predicted concentration is 0.82 μg/mL and the minimum concentration 0.1 μg/mL. The dose can be adjusted proportionally to achieve the desired concentrations."}, "[5]": {"assay": "Adduct formation with 4-HNE by mass spectroscopy", "settings": "equimolar 10 μM APL and 4-HNE, 1 hr incubation at 37° C.; FIG. 6A, 6B; dihydrochloride", "method": "The experimental design was to incubate equimolar amounts (10 μM) of APL (dihydrochloride) with 4-HNE and measure adduct formation by mass spectroscopy before and after 1 hr incubation at 37° C."}, "[6]": {"system": "GLUT4", "assay": "GLUT4 carbonylation in adipose tissue of HFD mice by MRM", "assay_type": "in vivo, C57BL/6J mice", "settings": "about 10 mg/kg per day in water, two weeks, n=8, P<0.02, FIG. 8A", "from_the_text": "MRM-MS is a quantitative mass spectrometry-based target technology that generates unique fragment ions associated with their corresponding precursor ions. These ions can be detected and quantified in complex matrix samples. The quantitation of peptides is obtained measuring the intensity of the fragment ions. To detect carbonylated GLUT4, specific peptides were selected. The parent ion for the carbonylated GLUT4 sequence LTGWADVSGVLAELKDEK-4HNE (SEQ ID NO:2) with triple charge mass is 696.381 m/z. After fragmentation of the parent ion, relative daughter ions: 1101.94, 788.4758, 917.5138, 988.5555, 722.4186, and 481.9482 m/z were identified and used for the quantification of the carbonylated Glut 4 peptide. […] This internal standard peptide allows a relative quantification because it is used for normalization of the intensity of each GLUT4 peptide within the same sample.\nMRM analyses were performed with a DIONEX UltiMate™ 3000 SRLCnano HPLC system (Thermo Scientific) coupled to a TSQ QUANTUM™ ULTRA (Thermo Scientific) triple quadrupole. PINPOINT™ software was used for method development and the optimization of the mass spectrometer parameters, as well as for peptide quantification. […]\nThirty-two C57BL/6J mice 8-weeks old were selected and randomly separated. […] Glucose levels were measured at 20, 40, 80 and 140 minutes after glucose administration in a glucose time test (GTT). […]"}, "[7]": {"system": "mice fed high fat diet (HFD)", "assay": "Fasting glucose and glucose tolerance test in HFD mice (Example 11)", "assay_type": "in vivo, C57BL/6J mice", "settings": "two weeks", "method": "Thirty-two C57BL/6J mice 8-weeks old were selected and randomly separated. The mice (n=8) were fed ad libitum for two weeks with either CHOW diet or high fat diet (HFD, 60% of fat content). Each group was divided in half 8 animals received regular water and the other 8 received (S)-2-amino-6-((3-aminopropyl)amino)hexanoic acid dihydrochloride dissolved in water so as to administer about 10 mg/kg of the drug body weight per mouse, per day. As an additional experimental control (n=8), a group of mice receiving HFD also received pioglitazone (10 mg/kg). Poglitazone is a well-known anti-diabetic agent. It has the ability to increase glucose uptake into the cells. […] At the end of the two weeks, animals were fasted for 5 hours, weighed, and their tails were clipped to measure fasting blood glucose levels. Immediately after, glucose was administered intraperitoneally (1 mg/g of body weight). Glucose levels were measured at 20, 40, 80 and 140 minutes after glucose administration in a glucose time test (GTT). Animals were euthanized under anesthesia (isoflurane). Blood, liver, fat and muscle tissues were collected and flash frozen for the studies. […]"}}, "note": "“Also recorded” adds a separate entry of the source. Structures can show the parent of a compound that is named as a salt."}
{"smiles": "NCCCNCCCC[C@H](N)C(=O)O", "note": "[APL, (S)-2-amino-6-((3-aminopropyl)amino)hexanoic acid dihydrochloride]", "values": [{"measurement": "half-life at 1 μM", "setting": "[1]", "value": "> 1", "unit": "h"}, {"measurement": "microsomal CLint at 1 μM", "setting": "[1]", "value": "< 23", "unit": "µL/min/mg"}, {"measurement": "half-life at 1 μM", "setting": "[2]", "value": "> 1", "unit": "h"}, {"measurement": "microsomal CLint at 1 μM", "setting": "[2]", "value": "< 23", "unit": "µL/min/mg"}, {"measurement": "half-life at 1 μM", "setting": "[3]; 1 μM in PBS (with Ca and Mg)", "value": "> 6", "unit": "h"}, {"measurement": "half-life at 5 μM", "setting": "[3]; 5 μM in PBS (+Ca and Mg)", "value": "> 3", "unit": "h"}, {"measurement": "half-life at 5 μM", "setting": "[3]; simulated gastric fluid (SGF) with pepsin, 5 μM in SGF (pH 1.2, pepsin)", "value": "> 3", "unit": "h"}, {"measurement": "half-life at 5 μM", "setting": "[3]; simulated intestinal fluid (SIF) with pancreatin, 5 μM in SIF (pH 6.8, pancreatin)", "value": "> 3", "unit": "h"}, {"measurement": "maximum predicted concentration", "setting": "[4]", "value": 0.82, "unit": "µg/mL"}, {"measurement": "minimum predicted concentration", "setting": "[4]", "value": 0.1, "unit": "µg/mL"}, {"measurement": "adduct formation with 4-HNE", "setting": "[5]", "value": "forms an adduct with 4-HNE after 1 hr of incubation; also recorded: forms an adduct with 4-NHE"}, {"measurement": "reduction of GLUT4 carbonylations in adipose tissue", "setting": "[6]", "value": "about 50%"}, {"measurement": "glucose tolerance test", "setting": "[7]; 10 mg/kg, glucose 1 mg/g i.p., FIG. 8C", "value": "drastically improved"}, {"measurement": "fasting glucose levels", "setting": "[7]; about 10 mg/kg per day, 5 hours fasted, FIG. 8B", "value": "reduced fasting glucose levels"}]}
